Assay [1] relates to M13 CaM-BP. Briefly: BLA-CaM chimera activity, nitrocefin assay with or without CaM-BP. In kind it is biochemical. An excerpt:
FIG. 5. Construction of β-lactamase single insert CaM chimeras (BLA-CaM). (A) A schematic showing th β-lactamase (BLA) assay. BLA degrades the beta-lactam ring nitrocefin. which can be detected by a colour change from yellow to red, for example using a wavelength λ=482 nm (wavelengths of λ=486 nm and λ=480 nm may also be used). […] (C) Activity of purified BLA-CaM chimeras in the presence (interrupted line) or absence (solid line) of saturating concentrations of M13 peptide. The insertion position is indicated by a number and a letter denoting deleted amino acid.
FIG. 6. Construction of B-lactamase double insert CaM chimeras (2CaM-BLA). (A) Activity analysis of a solution of 250 nM BLA-CaM 41G in the presence of 50 μM nitrocefin and in the presence (interrupted line) or absence (solid line) of 1 μM of M13 CaM-BP. […]
A range of insertion mutants of the enzyme β-lactamase (BLA) and calmodulin were constructed. β-lactamase degrades the beta-lactam ring in nitrocefin, which can be detected by a colour change from yellow to red (FIG. 5A). The β-lactamase structure (PDB: 3gmw) was analysed and a range of Calmodulin (BLA-CaM) chimeras were designed. […] The activity of the wild type β-lactamase as well as the BLA-CaM chimeras was monitored in the presence or absence of CaM-BP (M13). […]

Assay [2] relates to M13 CaM-BP. Briefly: GDH-CaM chimera activity, PMS/DCPIP assay with or without CaM-BP. In kind it is biochemical. The note with it: 10 nM chimera, presence vs absence of 1 μM M13 CaM-BP. The method, then: FIG. 11. Construction of a glucose dehydrogenase (GDH) AND gate biosensor. (A) GDH-CaM 48N activation by CaM-BP. activity analysis of a solution of 10 nM GDH-CaM 48N in the presence of 0.6 mM PMS as electron mediator and 60 μM DCPIP reporter dye in the presence of absence of 1 μM of M13 CaM-BP. (B) GDH-CaM 212N activation by CaM-BP. activity analysis of a solution of 10 nM GDH-CaM 212N in the presence of 0.6 mM PMS as electron mediator and 60 μM DCPIP reporter dye in the presence of absence of 1 μM of M13 CaM-BP. (C) GDH-CaM 48N_212N activation by CaM-BP. activity analysis of a solution of 10 nM GDH-CaM 48N_212N in the presence of 0.6 mM PMS as electron mediator and 60 μM DCPIP reporter dye in the presence of absence of 1 μM of M13 CaM-BP.
A range of insertion mutants of the enzyme glucose dehydrogenase (GDH) and calmodulin were constructed. […] The activity of GDH was monitored using 5-methylphenazinium methyl sulfate (PMS) as an electron mediator and 2,6-dichlorophenolindophenol (DCPIP) as a reporter dye, which upon reduction changes from blue to colourless. The GDH structure (PDB: 1c9u) was analysed and a library of CaM domain insertions was generated. […]
E.coli and purified to homogeneity. […] The activity of the wild type GDH as well as the GDH-CaM chimeras was monitored in the presence or absence of CaM-BP (M13). […]

The source of these data is patent US20250075249A1, “AND-GATE ALLOSTERIC PROTEIN-BASED SWITCHES” (QUEENSLAND UNIVERSITY OF TECHNOLOGY, priority 2022, published 2025).

Turning to “BLA-CaM 41G_197E: β-lactamase with calmodulin insertions at positions 41 and 197”, the “activity retained compared to the wild type enzyme” value in the assay with M13 CaM-BP [1] (10 nM enzyme, saturating M13 CaM-BP) is given as “about 25%”. Besides, the dynamic range result with M13 CaM-BP [1] (50 μM nitrocefin, presence vs absence of M13 CaM-BP) was “over 7000 fold”.
As for “GDH-CaM 48N_212N: Glucose dehydrogenase with calmodulin insertions at positions 48 and 212”, the dynamic range entry with M13 CaM-BP [2] is “over 20 fold”.
